How the values were obtained:
Type in all cases: in vivo
[1] = test system: velvetleaf (Abutilon theophrasti); experiment: Test B pre-/postemergence plant response; conditions: for Plant response rating, Velvetleaf: Postemergence, scale 0 to 100 (0 no effect, 100 complete control)
Method in brief: (§1)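 Each species received compound formulated in non-phytotoxic solvent with surfactant, either at planting into a loam and sand blend or as a foliar spray once plants reached 2 to 18 cm in peat-based medium. Plants stayed in the greenhouse 13 to 15 days before visual evaluation against controls, scored 0 (no effect) to 100 (complete control).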

[2] = test system: downy bromegrass (Bromus tectorum); experiment: Test B pre-/postemergence plant response
Method in brief: as §1

[3] = test system: pigweed (Amaranthus retroflexus); experiment: Test B pre-/postemergence plant response
Method in brief: as §1

[4] = test system: blackgrass (Alopecurus myosuroides); experiment: Test B pre-/postemergence plant response
Method in brief: as §1

[5] = test system: ragweed (common ragweed, Ambrosia elatior); experiment: Test B pre-/postemergence plant response; conditions: for Plant response rating, Ragweed: Postemergence, scale 0 to 100 (0 no effect, 100 complete control)
Method in brief: as §1

[6] = test system: wheat (Triticum aestivum); experiment: Test B pre-/postemergence plant response
Method in brief: as §1

[7] = test system: goosegrass (Eleusine indica); experiment: Test B pre-/postemergence plant response
Method in brief: as §1

[8] = test system: green foxtail (Setaria viridis); experiment: Test B pre-/postemergence plant response
Method in brief: as §1

[9] = test system: bermudagrass (Cynodon dactylon); experiment: Test B pre-/postemergence plant response
Method in brief: as §1

[10] = test system: Italian ryegrass (Lolium multiflorum); experiment: Test B pre-/postemergence plant response; conditions: for Plant response rating, Ryegrass, Italian: Postemergence, scale 0 to 100 (0 no effect, 100 complete control)
Method in brief: as §1

[11] = test system: johnsongrass (Sorghum halepense); experiment: Test B pre-/postemergence plant response
Method in brief: as §1

[12] = test system: morningglory (Ipomoea coccinea); experiment: Test B pre-/postemergence plant response
Method in brief: as §1

corn (Zea mays) = experiment: Test B pre-/postemergence plant response
Method in brief: as §1

[13] = test system: giant foxtail (Setaria faberii); experiment: Test B pre-/postemergence plant response
Method in brief: as §1

soybean (Glycine max) = experiment: Test B pre-/postemergence plant response; conditions: for Plant response rating, Soybean: Postemergence, scale 0 to 100 (0 no effect, 100 complete control)
Method in brief: as §1

[14] = test system: canarygrass (Phalaris minor); experiment: Test B postemergence plant response
Method in brief: (§2)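 Visual ratings from 0 (no effect) to 100 (complete control), made against controls 13–15 days after treatment, kept in a greenhouse. Compounds were applied postemergence to potted plants at the 1- to 4-leaf stage (2–18 cm).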

[15] = test system: winter barley (Hordeum vulgare); experiment: Test B postemergence plant response
Method in brief: as §2

[16] = test system: chickweed (Stellaria media); experiment: Test B postemergence plant response
Method in brief: as §2

[17] = 62 g ai/ha, postemergence, 0 is no effect, 100 is complete control, 13 to 15 days
[18] = 31 g ai/ha, postemergence, scale 0 to 100, 0 is no effect, 100 is complete control
[19] = Postemergence, 125 g ai/ha, scale 0 to 100 (0 no effect, 100 complete control)
[20] = Postemergence, 250 g ai/ha, scale 0 to 100 (0 no effect, 100 complete control)

In the case of `CCCn1c(-c2cccc(OC)c2)ncc(C(=O)C2=C(O)CCCC2=O)c1=O` [Compound 100], the “Velvetleaf plant response rating (0 to 100 scale)” value [1, 17] is reported as 70, the “Plant response rating, Velvetleaf” value ([1]; 125 g ai/ha) is reported as 70 and the “Plant response rating, Velvetleaf” value ([1]; 250 g ai/ha) is reported as 85. For the same molecule, the “Plant response rating, Bromegrass, Downy” value [2, 18] was 5, the “Bromegrass, Downy plant response rating (0 to 100 scale)” value [2, 17] was 10 and the “Plant response rating, Bromegrass, Downy” value [2, 19] was 15. The “Plant response rating, Bromegrass, Downy” value [2, 20] was 35, the “Plant response rating, Pigweed” value [3, 18] was 90 and the “Pigweed plant response rating (0 to 100 scale)” value [3, 17] was 98. The “Plant response rating, Pigweed” value [3, 19] was 98, the “Plant response rating, Pigweed” value [3, 20] was 98 and the “Plant response rating, Blackgrass” value [4, 18] was 0. The “Blackgrass plant response rating (0 to 100 scale)” value [4, 17] was 5, the “Plant response rating, Blackgrass” value [4, 19] was 10 and the “Plant response rating, Blackgrass” value [4, 20] was 40. For the same molecule, the “Ragweed plant response rating (0 to 100 scale)” value [5, 17] was 70, the “Plant response rating, Ragweed” value ([5]; 125 g ai/ha) was 75 and the “Plant response rating, Ragweed” value ([5]; 250 g ai/ha) was 80. The “Wheat plant response rating (0 to 100 scale)” value [6, 17] was 5, the “Plant response rating, Wheat” value [6, 19] was 15 and the “Plant response rating, Goosegrass” value [7, 18] was 70. The “Goosegrass plant response rating (0 to 100 scale)” value [7, 17] was 70, the “Plant response rating, Goosegrass” value [7, 19] was 75 and the “Plant response rating, Goosegrass” value [7, 20] was 75. For the same molecule, the “Plant response rating, Foxtail, Green” value [8, 18] was 20, the “Foxtail, Green plant response rating (0 to 100 scale)” value [8, 17] was 70 and the “Plant response rating, Foxtail, Green” value [8, 19] was 80. For the same molecule, the “Plant response rating, Foxtail, Green” value [8, 20] was 85, the “Plant response rating, Bermudagrass” value [9, 18] was 70 and the “Bermudagrass plant response rating (0 to 100 scale)” value [9, 17] was 70. The “Plant response rating, Bermudagrass” value [9, 19] was 75, the “Plant response rating, Bermudagrass” value [9, 20] was 85 and the “Ryegrass, Italian plant response rating (0 to 100 scale)” value [10, 17] was 5. For the same molecule, the “Plant response rating, Ryegrass, Italian” value ([10]; 125 g ai/ha) was 10, the “Plant response rating, Ryegrass, Italian” value ([10]; 250 g ai/ha) was 50 and the “Plant response rating, Johnsongrass” value [11, 18] was 0. For the same molecule, the “Johnsongrass plant response rating (0 to 100 scale)” value [11, 17] was 5, the “Plant response rating, Johnsongrass” value [11, 19] was 10 and the “Plant response rating, Johnsongrass” value [11, 20] was 25. For the same molecule, the “Plant response rating, Morningglory” value [12, 18] was 60, the “Morningglory plant response rating (0 to 100 scale)” value [12, 17] was 100 and the “Plant response rating, Morningglory” value [12, 19] was 100. The “Plant response rating, Morningglory” value [12, 20] was 100, the “Plant response rating, Corn” value (corn (Zea mays); [18]) was 0 and the “Corn plant response rating (0 to 100 scale)” value (corn (Zea mays); [17]) was 10. For the same molecule, the “Plant response rating, Corn” value (corn (Zea mays); [19]) was 20, the “Plant response rating, Corn” value (corn (Zea mays); [20]) was 45 and the “Plant response rating, Foxtail, Giant” value [13, 18] was 70. The “Foxtail, Giant plant response rating (0 to 100 scale)” value [13, 17] was 75, the “Plant response rating, Foxtail, Giant” value [13, 19] was 80 and the “Plant response rating, Foxtail, Giant” value [13, 20] was 85. For the same molecule, the “Soybean plant response rating (0 to 100 scale)” value (soybean (Glycine max); [17]) was 98, the “Plant response rating, Soybean” value (soybean (Glycine max); 125 g ai/ha) was 100 and the “Plant response rating, Soybean” value (soybean (Glycine max); 250 g ai/ha) was 100. The “Plant response rating, Canarygrass” value [14, 18] was 0, the “Canarygrass plant response rating (0 to 100 scale)” value [14, 17] was 5 and the “Plant response rating, Canarygrass” value [14, 19] was 5. For the same molecule, the “Plant response rating, Canarygrass” value [14, 20] was 10, the “Plant response rating, Barley” value [15, 18] was 5 and the “Barley plant response rating (0 to 100 scale)” value [15, 17] was 20. For the same molecule, the “Plant response rating, Barley” value [15, 19] was 30, the “Plant response rating, Barley” value [15, 20] was 50 and the “Plant response rating, Chickweed” value [16, 18] was 75. For the same molecule, the “Chickweed plant response rating (0 to 100 scale)” value [16, 17] was 75, the “Plant response rating, Chickweed” value [16, 19] was 95 and the “Plant response rating, Chickweed” value [16, 20] was 100.
